# Results: patent publication US9175003B2, “Substituted azoanthracene derivatives and intermediates for preparation thereof” (TransTech Pharma, LLC, priority 2009, dated 2015)
# Biological target: human GLP-1 receptor (Homo sapiens (Human), UniProt P43220)
# Settings: read-out: Mean EC50; cAMP, HTRF detection, 30 min at 37° C., HEK-293 cells expressing cloned human GLP-1 receptor
# Procedure: Following overnight incubation of cells, media was removed, and compounds (at concentrations ranging from 0.0001 to 100 μM) were added to monolayer cells in Iscove's modified dulbecco's medium (IMDM), 100 μM RO 20-1724 PDE inhibitor, 0.1% BSA, 2% DMSO in a final volume of 100 μL, and incubated for 30 min at 37° C. […] Alternatively, cells were harvested and combined with compounds in suspension using the buffer and protocol described above. cAMP was quantified using a homogenous time-resolved fluorescence detection system (cAMP dynamic, CIS bio International).
# Sequence of human GLP-1 receptor (P43220 24-463): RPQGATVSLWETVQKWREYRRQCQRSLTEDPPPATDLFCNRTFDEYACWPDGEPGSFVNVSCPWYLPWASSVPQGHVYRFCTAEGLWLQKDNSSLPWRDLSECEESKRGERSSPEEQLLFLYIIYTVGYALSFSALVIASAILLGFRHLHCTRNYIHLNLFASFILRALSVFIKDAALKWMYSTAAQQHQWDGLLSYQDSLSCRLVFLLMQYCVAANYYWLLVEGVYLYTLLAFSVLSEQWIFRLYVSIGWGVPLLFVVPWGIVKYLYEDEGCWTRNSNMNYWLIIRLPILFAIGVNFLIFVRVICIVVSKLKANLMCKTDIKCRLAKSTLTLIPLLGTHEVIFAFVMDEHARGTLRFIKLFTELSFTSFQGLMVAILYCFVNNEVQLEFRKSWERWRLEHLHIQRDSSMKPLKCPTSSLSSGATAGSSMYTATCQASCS
row,EC50,Structure (SMILES)
1,146 nM,"Cc1ccc(C(=O)N2Cc3cc4c(cc3C[C@H]2C(=O)N[C@@H](Cc2ccc(-c3ccnc(C)c3C)cc2)C(=O)O)OC[C@H](c2ccc(OCc3ccc(Cl)c(Cl)c3)cc2)O4)cc1 [Example 158, (S)-2-{[(3S,8S)-3-[4-(3,4-Dichloro-benzyloxy)-phenyl]-7-(4-methyl-benzoyl)-2,3,6,7,8,9-hexahydro-[1,4]dioxino[2,3-g]isoquinoline-8-carbonyl]-amino}-3-[4-(2,3-dimethyl-pyridin-4-yl)-phenyl]-propionic acid]"
2,56 nM,"CC[C@@H](c1ccccc1)N1Cc2cc3c(cc2C[C@H]1C(=O)N[C@@H](Cc1ccc(-c2ccnc(C)c2C)cc1)C(=O)O)OC[C@H](c1ccc(OC(C)C)cc1)O3 [Example 162, (S)-3-[4-(2,3-Dimethyl-pyridin-4-yl)-phenyl]-2-{[(3S,8S)-3-(4-isopropoxy-phenyl)-7-((S)-1-phenyl-propyl)-2,3,6,7,8,9-hexahydro-[1,4]dioxino[2,3-g]isoquinoline-8-carbonyl]-amino}-propionic acid]"
3,396 nM,"CC[C@@H](c1ccccc1)N1Cc2cc3c(cc2C[C@H]1C(=O)N[C@@H](Cc1ccc(-c2ccnc(C)c2C)cc1)C(=O)O)OC[C@H](c1ccc(OCCN(C)C)cc1)O3 [Example 165, (S)-2-{[(3S,8S)-3-[4-(2-Dimethylamino-ethoxy)-phenyl]-7-((S)-1-phenyl-propyl)-2,3,6,7,8,9-hexahydro-[1,4]dioxino[2,3-g]isoquinoline-8-carbonyl]-amino}-3-[4-(2,3-dimethyl-pyridin-4-yl)-phenyl]-propionic acid]"
4,116 nM,"CC[C@@H](c1ccccc1)N1Cc2cc3c(cc2C[C@H]1C(=O)N[C@@H](Cc1ccc(-c2ccnc(C)c2C)cc1)C(=O)O)OC[C@H](c1ccc(OCc2cccnc2)cc1)O3 [Example 169, (S)-3-[4-(2,3-Dimethyl-pyridin-4-yl)-phenyl]-2-({(3S,8S)-7-((S)-1-phenyl-propyl)-3-[4-(pyridin-3-ylmethoxy)-phenyl]-2,3,6,7,8,9-hexahydro-[1,4]dioxino[2,3-g]isoquinoline-8-carbonyl}-amino)-propionic acid]"
5,538 nM,"CCOc1ccc([C@H]2COc3cc4c(cc3O2)CN([C@@H](CC)c2ccccc2)[C@H](C(=O)N[C@@H](Cc2ccc(-c3ccnc(C)c3C)cc2)C(=O)O)C4)cc1 [Example 170, (S)-3-[4-(2,3-Dimethyl-pyridin-4-yl)-phenyl]-2-{[(3S,8S)-3-(4-ethoxy-phenyl)-7-((S)-1-phenyl-propyl)-2,3,6,7,8,9-hexahydro-[1,4]dioxino[2,3-g]isoquinoline-8-carbonyl]-amino}-propionic acid]"
6,4 nM,"Cc1ccccc1CN1Cc2cc3c(cc2C[C@H]1C(=O)N[C@@H](Cc1ccc(-c2ccnc(C)c2C)cc1)C(=O)O)OC[C@H](c1ccc(OCc2ccc(Cl)c(Cl)c2)cc1)O3 [Example 176, (S)-2-{[(3S,8S)-3-[4-(3,4-Dichloro-benzyloxy)-phenyl]-7-(2-methyl-benzyl)-2,3,6,7,8,9-hexahydro-[1,4]dioxino[2,3-g]isoquinoline-8-carbonyl]-amino}-3-[4-(2,3-dimethyl-pyridin-4-yl)-phenyl]-propionic acid]"

# The remaining lines, values behind:
row,Structure (SMILES),EC50
1,"Cc1nccc(-c2ccc(C[C@H](NC(=O)[C@@H]3Cc4cc5c(cc4CN3C(=O)c3ccccc3)O[C@@H](c3ccc(OCc4ccc(Cl)c(Cl)c4)cc3)CO5)C(=O)O)cc2)c1C [Example 159, (S)-2-({(3S,8S)-7-Benzoyl-3-[4-(3,4-dichloro-benzyloxy)-phenyl]-2,3,6,7,8,9-hexahydro-[1,4]dioxino[2,3-g]isoquinoline-8-carbonyl}-amino)-3-[4-(2,3-dimethyl-pyridin-4-yl)-phenyl]-propionic acid]",19 nM
2,"CC[C@@H](c1ccccc1)N1Cc2cc3c(cc2C[C@H]1C(=O)N[C@@H](Cc1ccc(-c2ccnc(C)c2C)cc1)C(=O)O)OC[C@H](c1ccc(OCC2CCCC2)cc1)O3 [Example 160, (S)-2-{[(3S,8S)-3-(4-Cyclopentylmethoxy-phenyl)-7-((S)-1-phenyl-propyl)-2,3,6,7,8,9-hexahydro-[1,4]dioxino[2,3-g]isoquinoline-8-carbonyl]-amino}-3-[4-(2,3-dimethyl-pyridin-4-yl)-phenyl]-propionic acid]",62 nM
3,"CC[C@@H](c1ccccc1)N1Cc2cc3c(cc2C[C@H]1C(=O)N[C@@H](Cc1ccc(-c2ccnc(C)c2C)cc1)C(=O)O)OC[C@H](c1ccc(OC)cc1)O3 [Example 161, (S)-3-[4-(2,3-Dimethyl-pyridin-4-yl)-phenyl]-2-{[(3S,8S)-3-(4-methoxy-phenyl)-7-((S)-1-phenyl-propyl)-2,3,6,7,8,9-hexahydro-[1,4]dioxino[2,3-g]isoquinoline-8-carbonyl]-amino}-propionic acid]",117 nM
4,"CC[C@@H](c1ccccc1)N1Cc2cc3c(cc2C[C@H]1C(=O)N[C@@H](Cc1ccc(-c2ccnc(C)c2C)cc1)C(=O)O)OC[C@H](c1ccc(OCC2CCCCC2)cc1)O3 [Example 163, (S)-2-{[(3S,8S)-3-(4-Cyclohexylmethoxy-phenyl)-7-((S)-1-phenyl-propyl)-2,3,6,7,8,9-hexahydro-[1,4]dioxino[2,3-g]isoquinoline-8-carbonyl]-amino}-3-[4-(2,3-dimethyl-pyridin-4-yl)-phenyl]-propionic acid]",113 nM
5,"CC[C@@H](c1ccccc1)N1Cc2cc3c(cc2C[C@H]1C(=O)N[C@@H](Cc1ccc(-c2ccnc(C)c2C)cc1)C(=O)O)OC[C@H](c1ccc(OC2CCCCC2)cc1)O3 [Example 164, (S)-2-{[(3S,8S)-3-(4-Cyclohexyloxy-phenyl)-7-((S)-1-phenyl-propyl)-2,3,6,7,8,9-hexahydro-[1,4]dioxino[2,3-g]isoquinoline-8-carbonyl]-amino}-3-[4-(2,3-dimethyl-pyridin-4-yl)-phenyl]-propionic acid]",62 nM
6,"CCC(CC)Oc1ccc([C@H]2COc3cc4c(cc3O2)CN([C@@H](CC)c2ccccc2)[C@H](C(=O)N[C@@H](Cc2ccc(-c3ccnc(C)c3C)cc2)C(=O)O)C4)cc1 [Example 166, (S)-3-[4-(2,3-Dimethyl-pyridin-4-yl)-phenyl]-2-{[(3S,8S)-3-[4-(1-ethyl-propoxy)-phenyl]-7-((S)-1-phenyl-propyl)-2,3,6,7,8,9-hexahydro-[1,4]dioxino[2,3-g]isoquinoline-8-carbonyl]-amino}-propionic acid]",22 nM
7,"CC[C@@H](c1ccccc1)N1Cc2cc3c(cc2C[C@H]1C(=O)N[C@@H](Cc1ccc(-c2ccnc(C)c2C)cc1)C(=O)O)OC[C@H](c1ccc(OCCC2CCCC2)cc1)O3 [Example 167, (S)-2-{[(3S,8S)-3-[4-(2-Cyclopentyl-ethoxy)-phenyl]-7-((S)-1-phenyl-propyl)-2,3,6,7,8,9-hexahydro-[1,4]dioxino[2,3-g]isoquinoline-8-carbonyl]-amino}-3-[4-(2,3-dimethyl-pyridin-4-yl)-5 phenyl]-propionic acid]",174 nM
8,"CC[C@@H](c1ccccc1)N1Cc2cc3c(cc2C[C@H]1C(=O)N[C@@H](Cc1ccc(-c2ccnc(C)c2C)cc1)C(=O)O)OC[C@H](c1ccc(OCCC(C)(C)C)cc1)O3 [Example 168, (S)-2-{[(3S,8S)-3-[4-(3,3-Dimethyl-butoxy)-phenyl]-7-((S)-1-phenyl-propyl)-2,3,6,7,8,9-hexahydro-[1,4]dioxino[2,3-g]isoquinoline-8-carbonyl]-amino}-3-[4-(2,3-dimethyl-pyridin-4-yl)-phenyl]-propionic acid]",114 nM
9,"CC[C@@H](c1ccccc1)N1Cc2cc3c(cc2C[C@H]1C(=O)N[C@@H](Cc1ccc(-c2ccnc(C)c2C)cc1)C(=O)O)OC[C@H](c1ccc(OC2CCCC2)cc1)O3 [Example 171, (S)-2-{[(3S,8S)-3-(4-Cyclopentyloxy-phenyl)-7-((S)-1-phenyl-propyl)-2,3,6,7,8,9-hexahydro-[1,4]dioxino[2,3-g]isoquinoline-8-carbonyl]-amino}-3-[4-(2,3-dimethyl-pyridin-4-yl)-phenyl]-propionic acid]",118 nM
10,"CC[C@@H](c1ccccc1)N1Cc2cc3c(cc2C[C@H]1C(=O)N[C@@H](Cc1ccc(-c2ccnc(C)c2C)cc1)C(=O)O)OC[C@H](c1ccc(OCC(C)C)cc1)O3 [Example 172, (S)-3-[4-(2,3-Dimethyl-pyridin-4-yl)-phenyl]-2-{[(3S,8S)-3-(4-isobutoxy-phenyl)-7-((S)-1-phenyl-propyl)-2,3,6,7,8,9-hexahydro-[1,4]dioxino[2,3-g]isoquinoline-8-carbonyl]-amino}-propionic acid]",132 nM
11,"CC[C@@H](c1ccccc1)N1Cc2cc3c(cc2C[C@H]1C(=O)N[C@@H](Cc1ccc(-c2ccnc(C)c2C)cc1)C(=O)O)OC[C@H](c1ccc(OC2CC4CCC2C4)cc1)O3 (stereo partly drawn) [Example 173, (S)-2-{[(3S,8S)-3-[4-(Bicyclo[2.2.1]hept-2-yloxy)-phenyl]-7-((S)-1-phenyl-propyl)-2,3,6,7,8,9-hexahydro-[1,4]dioxino[2,3-g]isoquinoline-8-carbonyl]-amino}-3-[4-(2,3-dimethyl-pyridin-4-yl)-phenyl]-propionic acid]",145 nM
12,"Cc1nccc(-c2ccc(C[C@H](NC(=O)[C@@H]3Cc4cc5c(cc4CN3C(=O)OC(C)(C)C)O[C@@H](c3ccc(OCc4ccc(Cl)c(Cl)c4)cc3)CO5)C(=O)O)cc2)c1C [Example 174, (3S,8S)-8-{(S)-1-Carboxy-2-[4-(2,3-dimethyl-pyridin-4-yl)-phenyl]-ethylcarbamoyl}-3-[4-(3,4-dichloro-benzyloxy)-phenyl]-2,3,8,9-tetrahydro-6H-[1,4]dioxino[2,3-g]isoquinoline-7-carboxylic acid tert-butyl ester]",153 nM
13,"Cc1nccc(-c2ccc(C[C@H](NC(=O)[C@@H]3Cc4cc5c(cc4CN3Cc3ccccn3)O[C@@H](c3ccc(OCc4ccc(Cl)c(Cl)c4)cc3)CO5)C(=O)O)cc2)c1C [Example 175, (S)-2-({(3S,8S)-3-[4-(3,4-Dichloro-benzyloxy)-phenyl]-7-pyridin-2-ylmethyl-2,3,6,7,8,9-hexahydro-[1,4]dioxino[2,3-g]isoquinoline-8-carbonyl}-amino)-3-[4-(2,3-dimethyl-pyridin-4-yl)-phenyl]-propionic acid]",5 nM
